Some test systems named below: ACHN renal; CAKI-1 renal; COLO 205 colon; HT29 colon; OVCAR-4 ovarian; SK-OV-3 ovarian; SN12C renal; SNB-75 CNS; UACC-257 melanoma; HOP-92 NSCLC.
Holding throughout (assay): inhibition of tumour cell growth, NCI panel, 48 h

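Cells were grown in 96-well plates and exposed to each compound for 48 hours at five concentrations; endpoints were interpolated linearly between bracketing concentrations, or set to the highest concentration if not reached. Here, GI50 denotes the concentration required for 50% inhibition of growth. TGI is the concentration that stops growth completely.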

Take `N[C@@H]1CCCC[C@@H]1N.O=P([O-])([O-])CN(CCN(CP(=O)([O-])[O-])CP(=O)([O-])[O-])CP(=O)([O-])[O-].[Pt+2]`: the GI50 in the test with ACHN renal, in the test on CAKI-1 renal, with COLO 205 colon, in the test on HT29 colon, in the test on OVCAR-4 ovarian and in the test with SK-OV-3 ovarian was more than 25 µM throughout. Also, the GI50 with SN12C renal, in the test on SNB-75 CNS and in the test with UACC-257 melanoma was more than 25 µM each time. The TGI in the test on ACHN renal, in the test on CAKI-1 renal, with COLO 205 colon, in the test with HT29 colon, with OVCAR-4 ovarian and in the test on SK-OV-3 ovarian was more than 25 µM in each case. For the same compound, the TGI in the test with SN12C renal, with SNB-75 CNS and with UACC-257 melanoma was more than 25 µM in each case.
For the compound `CCn1c(-c2nonc2N)nc2c(C#CC(C)(C)O)nc(OC[C@@H](N)c3ccccc3)cc21`, the GI50 in the test with ACHN renal is 4.17 µM; in the test on CAKI-1 renal it was 6.53 µM; in the test on COLO 205 colon, 4.68 µM; in the test on HT29 colon it was 4.9 µM; in the test with OVCAR-4 ovarian, 6.78 µM; with SK-OV-3 ovarian, 4.16 µM. Moreover, the values for the GI50 in the test with SN12C renal, in the test with SNB-75 CNS and in the test on UACC-257 melanoma were 3.96 µM, 2.45 µM and 5.67 µM, respectively. The TGI in the test on ACHN renal turned out to be 9.42 µM; with CAKI-1 renal, 14.1 µM; in the test on COLO 205 colon it was 8.31 µM; in the test on HT29 colon it was 9.53 µM; with OVCAR-4 ovarian it was 13.3 µM; in the test on SK-OV-3 ovarian it was 9.47 µM. Besides, the results for the TGI with SN12C renal, in the test with SNB-75 CNS and with UACC-257 melanoma were 7.66 µM, 5.66 µM and 9.83 µM, respectively.
Regarding `COC(=O)CC(c1ccccc1)C1(c2ccccc2)SCCS1` (stereo not given), the TGI with ACHN renal was more than 290 µM; with CAKI-1 renal it was more than 290 µM; in the test with COLO 205 colon, more than 290 µM; with HOP-92 NSCLC, 187 µM; with HT29 colon, more than 290 µM; in the test on SK-OV-3 ovarian, more than 290 µM. The TGI in the test on SN12C renal and in the test with UACC-257 melanoma was more than 290 µM in each case.
On to `C/C(CCn1[nH]c(=O)ccc1=O)=N\NC(=O)C(=O)NN`, for which the TGI with ACHN renal, with CAKI-1 renal, in the test with COLO 205 colon, with HT29 colon, in the test on OVCAR-4 ovarian and in the test with SK-OV-3 ovarian was more than 100 µM throughout. Further, the TGI in the test on SN12C renal and in the test with UACC-257 melanoma was more than 100 µM in each case.
Regarding `CCCCCC[C@@H]1CCC2C(CO)[C@@H](O)CC[C@@H]2C1` (stereo not given in full), the TGI in the test on ACHN renal came to 33.6 µM; with COLO 205 colon, 35.1 µM; in the test on HT29 colon, 34.1 µM; with OVCAR-4 ovarian it was 30.6 µM; in the test with SN12C renal, 30.6 µM; with SNB-75 CNS, 37.6 µM. Moreover, the TGI in the test on UACC-257 melanoma stood at 31 µM.
In the case of `Cn1ccc2c3c(Oc4ccc(NC(N)=O)cc4)ccnc3ccc21`, the GI50 in the test on ACHN renal, with CAKI-1 renal, in the test with COLO 205 colon, in the test on HT29 colon, with OVCAR-4 ovarian and in the test with SK-OV-3 ovarian was more than 100 µM each time. For the same compound, the GI50 in the test on SN12C renal and in the test with UACC-257 melanoma was more than 100 µM in each case. Also, the TGI in the test on ACHN renal, in the test on CAKI-1 renal, in the test with COLO 205 colon, with HT29 colon, in the test with OVCAR-4 ovarian and in the test with SK-OV-3 ovarian was more than 100 µM in each case. Further, the TGI in the test with SN12C renal and in the test on UACC-257 melanoma was more than 100 µM throughout.
For the compound `COc1cc(-c2ccc3cc(OC)c(OC)c(OC)c3c2)cc(OC)c1OC`, the GI50 was 40.2 µM with ACHN renal; more than 100 µM in the test on CAKI-1 renal; more than 100 µM in the test on COLO 205 colon; 2.17 µM in the test with HOP-92 NSCLC; more than 100 µM in the test with OVCAR-4 ovarian; 34.4 µM with SK-OV-3 ovarian. The GI50 in the test on SN12C renal and with UACC-257 melanoma was more than 100 µM each time. The TGI in the test on ACHN renal is more than 100 µM; with CAKI-1 renal it was more than 100 µM; in the test with COLO 205 colon, more than 100 µM; in the test on HOP-92 NSCLC it was 14.1 µM; with OVCAR-4 ovarian, more than 100 µM; in the test with SK-OV-3 ovarian, more than 100 µM. For the same compound, the TGI in the test with SN12C renal and with UACC-257 melanoma was more than 100 µM in each case.
With `c1ccc(NCn2cnc3ccccc32)cc1`, the TGI with ACHN renal, in the test on COLO 205 colon, in the test with HT29 colon, in the test with OVCAR-4 ovarian, in the test on SK-OV-3 ovarian and in the test on SN12C renal was more than 100 µM each time. The TGI with SNB-75 CNS and in the test on UACC-257 melanoma was more than 100 µM each time.
In the case of `CCCOc1cc2ccccc2cc1C(=O)Nc1nc(N)c2c(ccc3nccc32)[nH]1`, the GI50 in the test on ACHN renal was 0.0641 µM; with CAKI-1 renal, 0.62 µM; in the test on COLO 205 colon, 0.0445 µM; in the test with HOP-92 NSCLC, 0.0279 µM; in the test with HT29 colon, 0.0341 µM; in the test on OVCAR-4 ovarian, 1.55 µM. For the same compound, the results for the GI50 in the test on SK-OV-3 ovarian, in the test on SN12C renal and in the test on UACC-257 melanoma were 0.0591 µM, 1.42 µM and 1.21 µM, respectively. Besides, the TGI came out at 2.56 µM with ACHN renal; 3.31 µM with CAKI-1 renal; 0.481 µM in the test with COLO 205 colon; 1.98 µM in the test on HOP-92 NSCLC; 0.129 µM in the test with HT29 colon; 4.37 µM in the test on OVCAR-4 ovarian. Moreover, the TGI with SK-OV-3 ovarian stood at 2.36 µM; in the test on SN12C renal, 3.22 µM; in the test with UACC-257 melanoma, 2.62 µM.
Take `Nc1ccccc1SC(CC(=O)c1ccccc1)c1cccc([N+](=O)[O-])c1` (stereo not given): the GI50 with ACHN renal was 14.5 µM; in the test with CAKI-1 renal, 16.4 µM; in the test with COLO 205 colon it was 19.1 µM; in the test on HT29 colon, 5.79 µM; with OVCAR-4 ovarian it was 14.6 µM; with SK-OV-3 ovarian, 18.1 µM. For the same compound, the GI50 with SN12C renal was 13.9 µM; in the test with SNB-75 CNS it was 13.6 µM; in the test on UACC-257 melanoma it was 17.1 µM. Besides, the TGI is 27.9 µM with ACHN renal; 30.4 µM with CAKI-1 renal; 34.7 µM in the test with COLO 205 colon; 23 µM in the test on HT29 colon; 27.8 µM in the test on OVCAR-4 ovarian; 32 µM with SK-OV-3 ovarian. The results for the TGI with SN12C renal, in the test with SNB-75 CNS and in the test on UACC-257 melanoma were 26.9 µM, 26.7 µM and 31.1 µM, respectively.

The values above are taken from PubChem BioAssay (NCI).
